# Data reported in publication PMC3220932 (Pulmonary pharmacology & therapeutics, 2011).
# Key:
# [1] = tested on: human bronchial smooth muscle cells; assay type: cell-based; details: for IC50: read-out: IC50 for rapidly inhibiting formoterol uptake by human bronchial smooth muscle cells, 200 nmol/l [3H]-formoterol, mean, n = 6
# [2] = tested on: human airway epithelial cells; assay: Corticosteroid effect on tritiated drug uptake by airway epithelial cells; assay type: cell-based; details: 5 μmol/l
# OCT3 = biological target: T1, OCT3 (Homo sapiens, UniProt O75751); details: bronchial smooth muscle cells, OCT3 targeted shRNA
# T1 sequence (O75751 1-556): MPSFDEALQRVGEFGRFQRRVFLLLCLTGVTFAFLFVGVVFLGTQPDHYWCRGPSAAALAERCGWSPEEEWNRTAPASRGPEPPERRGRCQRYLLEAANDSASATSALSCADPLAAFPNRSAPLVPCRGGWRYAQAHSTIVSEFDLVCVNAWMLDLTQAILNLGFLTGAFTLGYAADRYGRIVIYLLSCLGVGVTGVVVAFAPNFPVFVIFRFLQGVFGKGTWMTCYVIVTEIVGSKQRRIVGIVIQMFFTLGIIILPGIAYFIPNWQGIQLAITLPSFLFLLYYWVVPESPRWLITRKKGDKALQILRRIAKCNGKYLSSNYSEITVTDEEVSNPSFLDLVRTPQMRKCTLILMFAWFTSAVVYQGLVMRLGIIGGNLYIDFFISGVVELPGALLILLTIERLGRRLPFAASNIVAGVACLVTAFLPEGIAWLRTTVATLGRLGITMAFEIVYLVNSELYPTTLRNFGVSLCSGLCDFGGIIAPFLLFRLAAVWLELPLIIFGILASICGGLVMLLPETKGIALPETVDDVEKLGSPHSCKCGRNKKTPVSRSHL
# [3] = tested on: human airway epithelial cells; assay: Cellular drug uptake by airway epithelial cells; details: 37°C, 15 min; for cellular uptake in airway epithelial cells: 200 nmol/l [3H]-formoterol or [3H]-salmeterol
# [4] = tested on: human bronchial smooth muscle cells; assay: Cellular drug uptake by bronchial smooth muscle cells; details: 37°C, 15 min; for cellular uptake in smooth muscle cells: 200 nmol/l [3H]-formoterol or [3H]-salmeterol
smiles,measurement,setting,value
CCC(=O)O[C@]1(C(=O)CO)[C@@H](C)C[C@H]2[C@@H]3CCC4=CC(=O)C=C[C@]4(C)[C@@]3(Cl)[C@@H](O)C[C@@]21C [Beclomethasone 17-monopropionate],IC50,[1]; 15-min incubation,4.04 µM
C[C@]12C[C@H](O)[C@H]3[C@@H](CCC4=CC(=O)CC[C@@]43C)[C@@H]1CC[C@@H]2C(=O)CO [Corticosterone],effect on MPP+ uptake by airway epithelial cells,[2]; 15-min incubation,but not airway epithelial cells
same,effect on salmeterol uptake in epithelial cells,[2]; 15 min,insensitive to corticosterone
same,rapid inhibitory effect on formoterol uptake in epithelial cells,[2]; 15 min,not in epithelial cells
same,action on formoterol uptake in presence of transcription inhibitor actinomycin D,"[1]; 5 μM, 100 μM actinomycin D added 60 min prior to transport measurements",insensitive
same,effect on MPP+ uptake by bronchial smooth muscle cells,"[1]; 5 μmol/l, 15-min incubation",significantly reduced
same,effect on salmeterol uptake in bronchial smooth muscle cells,"[1]; 5 μmol/l, 15 min",insensitive to corticosterone
same,inhibitory action on formoterol uptake after pretreatment for 45 or 90 min,"[1]; 5 μmol/l, bronchial smooth muscle cells",not enhanced
same,inhibitory effect on formoterol uptake under OCT3 mRNA suppression,OCT3,reduces
CCC(=O)O[C@]1(C(=O)SCF)[C@H](C)C[C@H]2[C@@H]3C[C@H](F)C4=CC(=O)C=C[C@]4(C)[C@@]3(F)[C@@H](O)C[C@@]21C [Fluticasone propionate],IC50,[1]; 15-min incubation,6.29 µM
"C[n+]1ccc(-c2ccccc2)cc1 [MPP^+, N-methyl-4-phenylpyridinium]",cellular uptake of MPP+ in epithelial cells,[3]; 5 nmol/l [3H]-MPP+,0.18 ± 0.03 pmol/mg protein/15 min
same,cellular uptake of MPP+ in smooth muscle cells,[4]; 5 nmol/l [3H]-MPP+,0.21 ± 0.02 pmol/mg protein/15 min
COc1ccc(CC(C)NCC(O)c2ccc(O)c(NC=O)c2)cc1 (stereo not shown) [formoterol],cellular uptake in airway epithelial cells,[3],8.9 ± 0.5 pmol/mg protein/15 min
same,cellular uptake in smooth muscle cells,[4],28.1 ± 1.6 pmol/mg protein/15 min
OCc1cc(C(O)CNCCCCCCOCCCCc2ccccc2)ccc1O (stereo not shown) [salmeterol],cellular uptake in airway epithelial cells,[3],46.6 ± 1.9 pmol/mg protein/15 min
same,cellular uptake in smooth muscle cells,[4],306.9 ± 13.3 pmol/mg protein/15 min
